{"source": "paper PMC10776879", "about": "“In vitro screening of topical formulation excipients for epithelial toxicity in cancerous and non-cancerous cell lines” (EXCLI Journal, 2023)", "key": {"[1]": {"system": "primary skin fibroblasts (FB)", "assay": "MTT cell viability assay", "assay_type": "cell-based, human", "settings": "24 h exposure", "protocol": "(§1) Cells were seeded into the 96-well cell culture plates in 100 μl of complete culture medium at the initial density of 2x10^4 (cells/ml). Cells were incubated under 5 % CO2 at 37 °C for 24 hours for adhering to the wells and medium was then replaced with 100 μl of fresh medium containing excipient solution at the required final concentration. Each concentration was tested in minimum of 5 replicates and control cells were exposed to the culture medium only.\n(§2) After cell incubation for 24 h, the excipient-containing medium was removed, and 100 μl of MTT in PBS (5 mg/ml) diluted 1:10 in medium was then added in the dark. Plates were further incubated for 2-3 h, after which time the medium was removed and the purple formazan product was dissolved by adding 200 μl of DMSO to each well. Plates were then placed in a shaker for 5 min at room temperature and the absorbance of the resulting solutions was measured at 570 nm using a microplate reader (Multiskan™ FC Microplate Photometer). The effect of each treatment was calculated as the percentage of tetrazolium salt reduction by viable cells against the negative control (cells treated with culture medium only).\n(§3) To assess the excipients' cytotoxicity, the dose-response effect of each excipient was measured against the cell lines. The cytotoxicity value for each concentration of the excipients was expressed as percentage of viability against the untreated control wells (the optical density of untreated cells was set at 100 % viability) to construct dose-response curves.\n(§4) All IC50 values were expressed as µg/ml. The percentage viability was calculated as follows: […]"}, "[2]": {"system": "WM164 human melanoma cells", "assay": "MTT cell viability assay", "assay_type": "cell-based", "settings": "24 h exposure", "protocol": "as §1, §2, §3, §4"}, "D24 human melanoma cells [3]": {"system": "D24 human melanoma cells", "assay": "MTT cell viability assay", "assay_type": "cell-based", "settings": "24 h exposure", "protocol": "as §1, §2, §3, §4"}, "[4]": {"system": "WM1366 human melanoma cells", "assay": "MTT cell viability assay", "assay_type": "cell-based", "settings": "24 h exposure", "protocol": "as §1, §2, §3, §4"}, "[5]": {"system": "HaCaT human keratinocytes", "assay": "MTT cell viability assay", "assay_type": "cell-based", "settings": "24 h exposure", "protocol": "as §1, §2, §3, §4"}, "[6]": {"system": "primary skin fibroblasts (FB)", "assay": "Crystal violet (CV) cell viability assay", "assay_type": "cell-based, human", "settings": "24 h exposure", "protocol": "(§5) Cells were seeded into the 96-well cell culture plates in 100 μl of complete culture medium at the initial density of 2x10^4 (cells/ml). Cells were incubated under 5 % CO2 at 37 °C for 24 hours for adhering to the wells and medium was then replaced with 100 μl of fresh medium containing excipient solution at the required final concentration. Each concentration was tested in minimum of 5 replicates and control cells were exposed to the culture medium only. Fixed cells were stained with crystal violet dye solution to screen cell viability under treatment conditions. Cells are fixed by 4 % (v/v) paraformaldehyde in PBS for 10 minutes. Crystal violet assay of 0.05 % (v/v) is prepared by 1:4 dilution of the crystal violet stock solution (v/v) in 4 % (v/v) paraformaldehyde. The fixed cells were washed twice with PBS and covered with 250 µl crystal violet working solution. The plates were placed on a bench rocker with medium frequency (20 oscillations per minute) at room temperature for 20 minutes. The plates were emptied and washed under indirect stream of tap water for three times and inverted on filter paper. The plates were taped gently on the paper to remove any remaining liquid and air dried with no lid for minimum of 2 hr at room temperature. After the plates were photographed, blue dye was dissolved in DMSO and the optical density of each well was measured at 570 nm (OD570) with a plate reader (Multiskan™ FC Microplate Photometer). The effect of each treatment was calculated as the percentage of crystal viable staining of surviving attached cells, against the negative control (cells treated with culture medium only). To assess the excipients' cytotoxicity, the dose-response effect of each excipient was measured against the cell lines. The cytotoxicity value for each concentration of the excipients was expressed as percentage of viability against the untreated control wells (the optical density of untreated cells was set at 100 % viability) to construct dose-response curves. […] All IC50 values were expressed as µg/ml. The percentage viability was calculated as follows: […]"}, "[7]": {"system": "human cell lines (WM164, WM1366, D24, HaCaT, FB)", "assay": "MTT and CV cytotoxicity, statements over all tested cell lines", "assay_type": "cell-based", "settings": "for Irritancy ranking: rank by MTT and CV IC50 over all cell lines, 1 = most cytotoxic", "protocol": "as §1, §2\nFixed cells were stained with crystal violet dye solution to screen cell viability under treatment conditions. Cells are fixed by 4 % (v/v) paraformaldehyde in PBS for 10 minutes. Crystal violet assay of 0.05 % (v/v) is prepared by 1:4 dilution of the crystal violet stock solution (v/v) in 4 % (v/v) paraformaldehyde. The fixed cells were washed twice with PBS and covered with 250 µl crystal violet working solution. The plates were placed on a bench rocker with medium frequency (20 oscillations per minute) at room temperature for 20 minutes. The plates were emptied and washed under indirect stream of tap water for three times and inverted on filter paper. The plates were taped gently on the paper to remove any remaining liquid and air dried with no lid for minimum of 2 hr at room temperature. After the plates were photographed, blue dye was dissolved in DMSO and the optical density of each well was measured at 570 nm (OD570) with a plate reader (Multiskan™ FC Microplate Photometer). The effect of each treatment was calculated as the percentage of crystal viable staining of surviving attached cells, against the negative control (cells treated with culture medium only).\nas §3\nThe cytotoxicity of the excipients was expressed in terms of an IC50 values (concentration causing 50 % death of the cell population) (Goldberg and Frazier, 1989[37]). […] All IC50 values were expressed as µg/ml. The percentage viability was calculated as follows: […]"}, "[8]": {"system": "WM164 human melanoma cells", "assay": "Crystal violet (CV) cell viability assay", "assay_type": "cell-based", "settings": "24 h exposure", "protocol": "as §5"}, "D24 human melanoma cells [9]": {"system": "D24 human melanoma cells", "assay": "Crystal violet (CV) cell viability assay", "assay_type": "cell-based", "settings": "24 h exposure", "protocol": "as §5"}, "[10]": {"system": "WM1366 human melanoma cells", "assay": "Crystal violet (CV) cell viability assay", "assay_type": "cell-based", "settings": "24 h exposure", "protocol": "as §5"}, "[11]": {"system": "HaCaT human keratinocytes", "assay": "Crystal violet (CV) cell viability assay", "assay_type": "cell-based", "settings": "24 h exposure", "protocol": "as §5"}, "[12]": {"system": "human leukemic cells (CCRF)", "design": "method as in Duncan et al., 1994[25]", "settings": "ref Duncan et al., 1994[25]; cited from earlier work"}, "[13]": {"settings": "Table 1, physicochemical information of the excipients, source not given; cited from earlier work"}}, "note": "“Also recorded” adds a separate entry of the source.", "data": [{"substance": "Propylene glycol dicaprylocaprate [Labrafac®]", "values": [{"measurement": "IC50 (μg/ml) [Mean, Range] FB, MTT", "setting": "[1]", "value": "> Max Conc."}, {"measurement": "IC50 (μg/ml) [Mean, Range] WM164, MTT", "setting": "[2]", "value": "> Max Conc."}, {"measurement": "IC50 (μg/ml) [Mean, Range] D24, MTT", "setting": "D24 human melanoma cells [3]", "value": "> Max Conc."}, {"measurement": "IC50 (μg/ml) [Mean, Range] WM1366, MTT", "setting": "[4]", "value": "> Max Conc."}, {"measurement": "IC50 (μg/ml) [Mean, Range] HaCaT, MTT", "setting": "[5]", "value": "> Max Conc."}, {"measurement": "IC50 (μg/ml) [Mean, Range] FB, CV", "setting": "[6]", "value": "> Max Conc."}, {"measurement": "Cytotoxicity (result in words)", "setting": "[7]; all cell lines, at the applied concentrations, 24 h", "value": "non-toxic; also recorded: did not induce any reduction in cell viability; also recorded: caused no toxicity to any cell lines; also recorded: No damaging effects on cell growth"}, {"measurement": "Irritancy ranking", "setting": "[7]", "value": 5}, {"measurement": "IC50 (μg/ml) [Mean, Range] WM164, CV", "setting": "[8]", "value": "> Max Conc."}, {"measurement": "IC50 (μg/ml) [Mean, Range] D24, CV", "setting": "D24 human melanoma cells [9]", "value": "> Max Conc."}, {"measurement": "IC50 (μg/ml) [Mean, Range] WM1366, CV", "setting": "[10]", "value": "> Max Conc."}, {"measurement": "IC50 (μg/ml) [Mean, Range] HaCaT, CV", "setting": "[11]", "value": "> Max Conc."}]}, {"substance": "Triton X-100 [reference compound]", "values": [{"measurement": "IC50, MTT assay", "setting": "[12]", "value": 1, "unit": "mg/L"}, {"measurement": "IC50 (μg/ml) [Mean, Range] FB, MTT", "setting": "[1]", "value": "0.1034 (0.08 to 0.16) μg/ml"}, {"measurement": "HLB", "setting": "[13]", "value": 13.5}, {"measurement": "IC50 (μg/ml) [Mean, Range] WM164, MTT", "setting": "[2]", "value": "0.0042 (0.002 to 0.01) μg/ml"}, {"measurement": "IC50 (μg/ml) [Mean, Range] D24, MTT", "setting": "D24 human melanoma cells [3]", "value": "0.0429 (0.04 to 0.05) μg/ml"}, {"measurement": "IC50 (μg/ml) [Mean, Range] WM1366, MTT", "setting": "[4]", "value": 0.083, "unit": "µg/mL"}, {"measurement": "IC50 (μg/ml) [Mean, Range] HaCaT, MTT", "setting": "[5]", "value": "0.0417 (0.04 to 0.043) μg/ml"}, {"measurement": "IC50 (μg/ml) [Mean, Range] FB, CV", "setting": "[6]", "value": "0.094 (0.08 to 0.13) μg/ml"}, {"measurement": "Concentration causing significant inhibition of cell growth", "setting": "[7]; all cell lines", "value": 0.004, "unit": "µg/mL"}, {"measurement": "IC50", "setting": "[7]; over the tested cell lines, this study", "value": "< 0.08", "unit": "mg/L"}, {"measurement": "Irritancy ranking", "setting": "[7]", "value": 1}, {"measurement": "IC50 (μg/ml) [Mean, Range] WM164, CV", "setting": "[8]", "value": 0.0265, "unit": "µg/mL"}, {"measurement": "IC50 (μg/ml) [Mean, Range] D24, CV", "setting": "D24 human melanoma cells [9]", "value": "0.043 (0.04 to 0.045) μg/ml"}, {"measurement": "IC50 (μg/ml) [Mean, Range] WM1366, CV", "setting": "[10]", "value": 0.089, "unit": "µg/mL"}, {"measurement": "IC50 (μg/ml) [Mean, Range] HaCaT, CV", "setting": "[11]", "value": "0.044 (0.042 to 0.047) μg/ml"}]}]}
